How the values were obtained:
MCF 10A cells [1] = assay: EdU cell proliferation assay, MCF 10A; format: cell-based, human; conditions: 24 h
Method: Exponentially growing MDA-MB-231 and MCF 10A cells were seeded into 6-well plates at a density of 1.5 × 10^5 cells/well in the presence of indicated concentrations of B02-iso or 0.1% DMSO (for control cells). After 24 h of incubation, cells were labeled with 10 µM Edu (Invitrogen; Waltham, […], USA) for 1 h or left unlabeled in the control. Cells were harvested and centrifuged at 500× g, 4 °C for 5 min, and cell pellets were washed with PBS supplemented with 1% BSA, spun down, and fixed with 4% methanol-free formaldehyde (Pierce) in PBS for 15 min. Cells were washed with PBS containing 1% BSA, centrifuged 500× g for 5 min. Cell pellets were resuspended in PBS containing 0.1% Triton X-100 and incubated for 15 min for permeabilization. Cells were spun down, resuspended in freshly prepared Edu click labeling solution (1 mM CuSO4, 1.25 µM Alexa Fluor 488 Azide (Invitrogen; Waltham, […], USA), 50 mM ascorbic acid in PBS) and incubated for 30 min in the dark. Cells were washed twice with PBS containing 0.1% Triton X-100, resuspended in the same buffer, and analyzed for Edu incorporation by flow cytometry using the Guava easyCyte system (Millipore; Burlington, VT, USA) with the InCyte software (Millipore; Burlington, VT, USA).

MCF 10A cells [2] = assay: Cell viability assay (Guava ViaCount flow cytometry), MCF 10A; format: cell-based, human
Method: For all cell viability experiments, except experiments involving MMS treatment, cells were seeded into the media containing indicated concentrations of tested compounds or corresponding amounts of DMSO in controls. The concentration of DMSO in media was 0.1%. MDA-MB-231 cells were seeded into 24-well plates at 3.5 × 10^4 cells/well for cells for a 4-day treatment or at 5000 cells/well for a 10-day treatment. MCF 10A cells were seeded into 24-well plates at 1.5 × 10^4 cells/well for a 4-day treatment or at 500 cells/well for a 10-day treatment. In the case of 10-day treatments, the media with compounds were renewed twice on the 4th and the 7th days of treatments. After completion of the treatments, cells were harvested, and their viability was determined by flow cytometry with Guava ViaCount reagent (Luminex; Austin, TX USA). Data were analyzed using the Guava ViaCount software (Millipore; Burlington, VT, USA). The IC50 values were calculated using the GraphPad Prism 5 software (San Diego, CA, USA).

[3] = tested on: RAD51 foci in U-2 OS IndDR-GFP cells; assay: RAD51 foci formation (immunofluorescence); format: cell-based, human; conditions: 30 µM
Method: U-2 OS IndDR-GFP cells were seeded into 8-well polystyrene vessel culture slides at 5 × 10^4 cells/well. The next day, cells were pretreated with B02-iso or 0.1% DMSO (for control cells) for 1 h, followed by the treatment with 5 µM cisplatin for 4 h or left untreated (for control cells). After 4 h of incubation, cells were placed on ice, washed with PBS buffer (twice, 5 min each), pretreated with 0.5% Triton X-100 for 5 min, washed with PBS (twice, 5 min each). Cells were removed from ice and fixed with 4% methanol-free formaldehyde (Pierce; Waltham, […], USA) in PBS for 10 min. Cells were washed with PBS (twice, 5 min each), placed on ice, and permeabilized with 1% Triton X-100 in PBS for 10 min. Cells were removed from ice, washed with PBS (once, 5 min), blocked with a blocking buffer (5% BSA (Bovine Serum Albumin) in PBS) for 30 min, and incubated with rabbit polyclonal RAD51 antibody (1:1000, GeneTex, GTX100469) and mouse monoclonal anti-phospho-histone H2A.X (Ser 139) antibody (1:20,000, clone JBW301, Millipore 05-636) in blocking buffer, containing 0.3% Triton X-100 overnight at 4 °C. […] For foci quantification, 50 cells were chosen for each treatment condition at random, and foci number was counted using ImageJ software. […]

[4] = tested on: HR in human U-2 OS IndDR-GFP cells; assay: Inducible I-SceI DR-GFP assay (IndDR-GFP), inhibition of HR; format: cell-based
Method: Exponentially growing U-2 OS IndDR-GFP cells were seeded at a density of 2 × 10^5 cells/well into 6-well plates with DMEM media containing 80 µg/mL G418 and indicated concentrations of RAD51i(s). For I-SceI induced samples, the media were supplemented with 0.5 µM Shield1 (Clontech, Mountain View, CA, USA) with 100 nM triamcinolone acetonide (Sigma, St. Louis, MO, USA). After 24 h of incubation, the media were removed, cells were washed with the DMEM, and the incubation continued for 48 h in DMEM containing 100 units/mL penicillin, 100 µg/mL streptomycin, and 80 µg/mL G418. Then, cells were trypsinized, trypsin solution was neutralized with an equal volume of media, and 10% formaldehyde solution in PBS was added for fixation to reach a final concentration of formaldehyde of 3.3%. The yield of GFP-positive cells indicative of HR activity was measured by flow cytometry with the Guava easyCyte system, and the data were analyzed with the InCyte program (Millipore; Burlington, VT, USA).

SMILES: O=c1nc(/C=C/c2cccnc2)n(Cc2ccccc2)c2ccccc12 [B02-iso]
- Fraction of DNA-replicating cells (EdU) (MCF 10A cells [1]; 4 µM): dropped approximately two-fold
- Fraction of DNA-replicating cells (EdU) (MCF 10A cells [1]; 8 µM): abolished almost entirely
- Times lower sensitivity of MCF 10A compared with MDA-MB-231 (MCF 10A cells [2]; 4-day treatment, ratio of IC50): approximately 3
- IC50 (MCF 10A cells [2]; Homo sapiens, 96 h, MCF 10A, 4-day treatment): 11.9 µM
- Effect on cell viability in combination with olaparib (MCF 10A cells [2]; MCF 10A, 1.8 µM B02-iso, same range of olaparib concentrations, 10-day treatment): did not decrease cell viability
- RAD51 foci formation, compound alone ([3]; 1 h, no cisplatin): did not significantly affect RAD51 foci formation
- RAD51 foci formation induced by cisplatin ([3]; 1 h pretreatment, then 5 µM cisplatin 4 h): almost completely eliminated RAD51 foci formation
- IC50 ([4]; Homo sapiens, U2OS, U-2 OS IndDR-GFP cells, 24 h with compound, ± SD, read-out: IC50, efficiency of HR inhibition in IndDR-GFP assay): 4.3 ± 0.75 µM
- Improvement of potency (HR inhibition) versus B02 ([4]; IndDR-GFP IC50 of B02-iso vs B02): approximately four-fold
